# Entries after “also recorded” stand apart in the source; their conditions may differ.
# What was measured:
# SH-SY5Y cells [1] = experiment: dehydrogenase activity, WST-1 test; type: cell-based, human; details: for Dehydrogenase Activity (% of Control): 100 µM, mean ± SD; for change in dehydrogenase activity (in words): 10 µM
# Experimental: (§1) Next, we tested the effects of the compounds on intracellular dehydrogenase activity and glutathione levels. […] To evaluate the effects of the compounds on cells, we measured total intracellular dehydrogenase activity as a marker of cellular viability and glutathione levels for evaluation of oxidative stress (Table 6).
# Dehydrogenase activity was evaluated by WST-1 test (Roche, Munich, Germany). The WST-1 test measures the activity of intra- and extra-mitochondrial dehydrogenases. […] The change of absorbance was measured by spectrophotometer at the wavelength of 440 nm using SPARK microplate reader (Tecan, Austria) while incubated at 37 °C. The dehydrogenase activity was expressed as the percentage of total cellular dehydrogenase activity relative to that in the control cells (control = 100%).
# GluN1/GluN2B receptor = molecular target: T1, GluN1/GluN2B receptor (Homo sapiens, UniProt Q05586+Q13224); experiment: whole-cell patch-clamp on HEK293 cells expressing GluN1/GluN2B NMDAR; type: cell-based; details: HEK293, 10 µM, −60 mV, ± SEM (n = 5–6), 100% = full inhibition; read-out: Relative inhibition (RI) of GluN1/GluN2B NMDAR
# T1 construct: expressed in transfected cells; host or cells: HEK293
# T1 sequence (Q13224 27-1484, other chains not shown): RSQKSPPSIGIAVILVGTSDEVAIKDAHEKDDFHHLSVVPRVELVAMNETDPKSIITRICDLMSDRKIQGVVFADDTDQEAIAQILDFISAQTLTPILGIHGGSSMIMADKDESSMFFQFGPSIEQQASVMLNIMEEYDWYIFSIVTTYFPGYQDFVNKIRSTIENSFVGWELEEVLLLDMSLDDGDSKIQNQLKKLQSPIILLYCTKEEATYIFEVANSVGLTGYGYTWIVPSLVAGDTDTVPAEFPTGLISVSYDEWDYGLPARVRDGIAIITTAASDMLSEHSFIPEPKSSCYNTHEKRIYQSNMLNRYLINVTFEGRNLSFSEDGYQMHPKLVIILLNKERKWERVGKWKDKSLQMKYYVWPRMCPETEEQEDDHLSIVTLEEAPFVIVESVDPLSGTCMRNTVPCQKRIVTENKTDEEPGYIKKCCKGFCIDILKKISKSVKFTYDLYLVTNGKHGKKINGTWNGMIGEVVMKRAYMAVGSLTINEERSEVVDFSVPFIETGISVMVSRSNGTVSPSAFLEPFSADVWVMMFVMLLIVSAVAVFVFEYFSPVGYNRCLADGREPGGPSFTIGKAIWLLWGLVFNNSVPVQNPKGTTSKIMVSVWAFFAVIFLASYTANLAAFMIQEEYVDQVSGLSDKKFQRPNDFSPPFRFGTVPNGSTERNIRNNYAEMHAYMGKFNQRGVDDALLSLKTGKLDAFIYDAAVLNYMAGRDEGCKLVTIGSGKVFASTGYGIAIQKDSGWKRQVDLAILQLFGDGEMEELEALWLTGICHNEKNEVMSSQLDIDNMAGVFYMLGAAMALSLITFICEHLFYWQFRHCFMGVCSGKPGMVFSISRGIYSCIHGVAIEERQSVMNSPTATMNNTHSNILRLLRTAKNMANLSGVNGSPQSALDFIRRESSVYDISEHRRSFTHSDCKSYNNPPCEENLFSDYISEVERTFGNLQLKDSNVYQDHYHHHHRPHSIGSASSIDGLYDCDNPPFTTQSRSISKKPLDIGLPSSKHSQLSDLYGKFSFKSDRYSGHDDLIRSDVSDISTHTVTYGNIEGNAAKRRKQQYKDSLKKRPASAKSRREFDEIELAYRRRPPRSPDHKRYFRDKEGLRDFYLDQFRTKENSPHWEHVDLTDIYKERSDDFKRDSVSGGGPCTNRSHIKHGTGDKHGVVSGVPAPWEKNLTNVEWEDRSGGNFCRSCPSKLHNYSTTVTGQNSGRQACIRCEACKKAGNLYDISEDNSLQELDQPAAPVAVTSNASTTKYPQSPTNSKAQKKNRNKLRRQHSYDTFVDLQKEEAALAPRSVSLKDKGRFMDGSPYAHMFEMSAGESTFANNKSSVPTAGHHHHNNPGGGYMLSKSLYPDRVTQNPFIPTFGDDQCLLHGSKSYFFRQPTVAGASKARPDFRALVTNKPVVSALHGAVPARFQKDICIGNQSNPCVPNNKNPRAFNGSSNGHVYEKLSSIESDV
# Experimental: We tested the derivatives by the whole-cell patch-clamp method at a concentration of 10 μM under steady-state conditions in the presence of the saturating concentrations of NMDAR (co-)agonists (L-glutamate and glycine). […] Whole-cell patch-clamp recordings were performed using an Axopatch 200B amplifier (Molecular Devices, LLC., San Jose, CA, USA) at a holding membrane potential of −60 mV. HEK293 cells were co-transfected with DNA vectors encoding human versions of the GluN1-4a (GluN1) and GluN2B subunits and green fluorescent protein (GFP) in a 1:1:1 ratio using 0.9 μL PolyMag reagent (OZ Biosciences SAS, Marseille, France) in 50 μL Opti-MEM I [56, 57]. After 15 min on a magnetic plate, HEK293 cells were trypsinized and resuspended in Opti-MEM I medium containing 1% FBS, 2 mM MgCl2 and 3 mM kynurenic acid (to reduce cell death caused by activation of NMDARs). Electrophysiological measurements were performed 24–48 h after completion of transfection at room temperature. The extracellular recording solution (ECS) contained (in mM): 160 NaCl, 2.5 KCl, 10 HEPES, 10 D-glucose, 0.2 EDTA, and 0.7 CaCl2 (pH 7.3 with NaOH). […] A microprocessor-controlled rapid perfusion system with a time constant for solution exchange around the recorded cell of ~20 ms was used. Currents were low-pass filtered at 2 kHz using an eight-pole Bessel filter, digitized at 5 kHz, and recorded using the pCLAMP 10 program (Molecular Devices, LLC., San Jose, CA, USA). The co-agonist glycine (100 µM) was applied throughout the recording, and the agonist L-glutamate (1 mM) was used to elicit responses of GluN1/GluN2B receptors.
# [2] = tested on: differentiated SH-SY5Y cells; experiment: MTT viability of differentiated SH-SY5Y; type: cell-based, human; details: concentration equal to IC50 from undifferentiated model, 24 h
# Experimental: Then, the differentiated SH-SY5Y cells were treated with concentrations corresponding to the IC50 values obtained from the cytotoxicity measurement using undifferentiated SH-SY5Y cells. Cells were exposed to a tested compound for 24 h. Then, the medium was replaced by a medium containing 10 μM of MTT and cells were allowed to produce formazan for another, approximately 3 h under surveillance. Thereafter, the medium was aspirated and purple crystals of MTT formazan were dissolved in 100 μL DMSO under shaking. Cell viability was assessed spectrophotometrically by the amount of formazan produced. Absorbance was measured at 570 nm with 650 nm reference wavelength on Spark (Tecan Group Ltd., Männedorf, Switzerland). The IC50 value was then calculated from the control-subtracted triplicates using non-linear regression (four parameters) of GraphPad Prism 9 software. Final IC50 and SEM values were obtained as a mean of three.
# human AChE (hAChE) = molecular target: T2, human AChE (hAChE) (Homo sapiens, UniProt P22303); experiment: hAChE inhibition, modified Ellman's method; type: biochemical; details: read-out: % of AChE inhibition
# T2 construct: made in house
# T2 sequence (P22303 32-614): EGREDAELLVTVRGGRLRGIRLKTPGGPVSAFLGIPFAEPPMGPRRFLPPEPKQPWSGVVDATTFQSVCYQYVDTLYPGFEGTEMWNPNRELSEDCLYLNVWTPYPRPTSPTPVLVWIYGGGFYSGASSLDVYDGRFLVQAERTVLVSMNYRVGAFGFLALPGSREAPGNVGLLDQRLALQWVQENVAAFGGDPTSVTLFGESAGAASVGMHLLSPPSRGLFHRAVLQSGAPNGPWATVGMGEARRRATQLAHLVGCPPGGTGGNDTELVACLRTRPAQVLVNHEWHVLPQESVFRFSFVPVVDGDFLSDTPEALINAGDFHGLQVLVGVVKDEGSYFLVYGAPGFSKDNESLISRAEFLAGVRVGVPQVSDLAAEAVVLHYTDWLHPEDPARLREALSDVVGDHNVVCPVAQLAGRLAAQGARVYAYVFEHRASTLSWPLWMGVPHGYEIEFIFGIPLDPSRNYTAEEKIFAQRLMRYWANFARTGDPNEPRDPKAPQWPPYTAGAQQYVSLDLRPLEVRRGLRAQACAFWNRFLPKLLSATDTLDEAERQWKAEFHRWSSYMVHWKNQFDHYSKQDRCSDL
# Experimental: N-Methylpropargylamine-quinazolines were tested for their inhibitory potency against human AChE (hAChE) and human BChE (hBChE) enzymes using the modified spectrophotometric method of Ellman et al..
# The human recombinant BChE and AChE were prepared at the Department of Toxicology and Military Pharmacy (Faculty of Military Health Sciences, Hradec Kralove, Czech Republic). 5,5′-dithiobis(2-nitrobenzoic acid) (Ellman’s reagent, DTNB), phosphate buffer (PB, pH 7.4), acetylthiocholine (ATC) and butyrylthiocholine (BTC), were purchased from Sigma-Aldrich, Prague, Czech Republic. For measuring purposes, polystyrene Nunc 96-well microplates with a flat-bottom shape (ThermoFisher Scientific, Waltham, MA, USA) were utilized. All the assays were carried out in 0.1 M KH2PO4/K2HPO4 buffer, pH 7.4. Enzyme solutions were prepared at 2.0 units/mL in 2 mL aliquots. The assay medium consisted of a 0.1 M phosphate buffer (pH 7.4), 0.01 M DTNB, the enzyme, and 0.01 M substrate (ATC/BTC iodide solution). Concentration 1 µM was tested and the % of inhibition was calculated. Tested compounds were pre-incubated for 5 min. The reaction was started by immediate addition of 20 μL of the substrate. […] Each concentration was assayed in triplicate. Software GraphPad Prism 5 (San Diego, CA, USA) was used for the statistical data evaluation.
# SH-SY5Y cells [3] = experiment: glutathione levels, monochlorobimane assay; type: cell-based, human; details: 10 µM, 24 h
# Experimental: as §1
# The glutathione (GSH) levels were measured using an optimized monochlorobimane assay. The working solutions of monochlorobimane (MCB, Merck, Rahway, NJ, USA) were prepared fresh at the time of analysis by dilution in Dulbecco’s phosphate buffer (PBS; pH 7; 1 µM, Merck, USA) and tempered at 37 °C for 30 min. After the treatment of cells with I-6e (100 µM), I-6h (100 µM), II-6e (100 µM), II-6h (10–100 µM) and III-6a (10–100 µM), 20 μL of the MCB solution was added to the cells in 96-well microplates and the measurement started immediately (final concentration of MCB in a well was 40 μmol/L) The fluorescence intensity (Ex/Em = 394/490 nm) was measured kinetically for 20 min using SPARK microplate reader (Tecan, Austria). The fluorescence was expressed as the slope of a fluorescence change over time. The GSH levels were expressed as the percentage relative to the GSH levels in control cells (control = 100%).
SMILES,Dehydrogenase Activity (% of Control) (SH-SY5Y cells [1]; 6 h),Dehydrogenase Activity (% of Control) (SH-SY5Y cells [1]; 24 h),inhibition at 10 µM (GluN1/GluN2B receptor) [%],effect on viability of differentiated SH-SY5Y (in words) [2],inhibition at 1 µM (human AChE (hAChE)) [%],change in dehydrogenase activity (in words) (SH-SY5Y cells [1]; 24 h),change in glutathione levels (in words) (SH-SY5Y cells [3])
"C#CCN(C)c1nc(NCCCC)c2ccccc2n1 [I-6e, N4-butyl-N2-methyl-N2-(prop-2-yn-1-yl)quinazoline-2,4-diamine]",44 ± 13 % of Control,49 ± 4 % of Control,30.1 ± 3.13,no difference from the undifferentiated model,3,–,–
"C#CCN(C)c1nc(NC2CCCCC2)c2ccccc2n1 [I-6h, N4-cyclohexyl-N2-methyl-N2-(prop-2-yn-1-yl)quinazoline-2,4-diamine]",62 ± 10 % of Control,49 ± 2 % of Control,49.3 ± 1.16,no difference from the undifferentiated model,4,–,–
"C#CCN(C)c1nc(NC2CCCCC2)c2ccc(Cl)cc2n1 [II-6h, 7-chloro-N4-cyclohexyl-N2-methyl-N2-(prop-2-yn-1-yl)quinazoline-2,4-diamine]",40 ± 3 % of Control,22 ± 7 % of Control,63.5 ± 3.46,did not exhibit any cytotoxic effects; also recorded: lost the cytotoxic effect,3,no significant changes,no significant changes
"C#CCN(C)c1nc(N)c2cc(OC)ccc2n1 [III-6a, 6-methoxy-N2-methyl-N2-(prop-2-yn-1-yl)quinazoline-2,4-diamine]",107 ± 8 % of Control,128 ± 4 % of Control,18.1 ± 5.75,no difference from the undifferentiated model,9,no significant changes,no significant changes

# Source: publication PMC10252614 (International Journal of Molecular Sciences, 2023)
